Values quoted from earlier work in patent US12223643B2, “Machine-learning system for diagnosing disorders and diseases and determining drug responsiveness” (Sanford Burnham Prebys Medical Discovery Institute, priority 2019, dated 2025).

Tested on: bipolar disorder (BPD) patients

SMILES: O=C([O-])[O-].[Li+].[Li+] [Lithium carbonate]
- patients respond to lithium treatment: approximately 35%
- risk of suicide: reduce the risk of suicide
